The target in one assay is CDK2/Cyclin E1 (Homo sapiens, UniProt P24941). Put plainly: CDK2/Cyclin E1 Biochemical Assay (TR-FRET), 0.060 mM ATP. Conditions: 0.15 μM Rb (Ser780)-biotin substrate, pH7.0, 60 min preincubation, 120 min reaction, room temperature. How it is done:
(§1) CDK2/Cyclin E1 and CDK1/Cyclin B1 Biochemical Assays
(§2) Compounds disclosed herein were tested for inhibition of CDK2/Cyclin E1 or CDK1/Cyclin B1 kinase in an assay based on the time-resolved fluorescence-resonance energy transfer (TR-FRET) methodology. The assay was carried out in 384-well low volume black plates in a reaction mixture containing CDK2/Cyclin E1 or CDK1/Cyclin B1, 0.060 mM ATP for CDK2/Cyclin E1 or 0.015 mM ATP for CDK1/Cyclin B1, 0.15 μM Rb (Ser780)-biotin substrate and 0-10 μM compound in buffer containing 50 mM HEPES pH7.0, 0.02% NaN3, 0.01% BSA, 0.1 mM Orthovanadate, 50 mM MgCl2, 1 mM DTT and 0.005% Tween-20. The kinase was incubated with compound for 60 minutes at room temperature and the reaction was initiated by the addition of ATP and Rb (Ser780)-biotin substrate. After reaction at room temperature for 120 minutes, an equal volume of stop/detection solution was added according to the manufacture's instruction (Cisbio Bioassays). The stop/detection solution contained Streptavidin-XL665 and Anti-pRb (Ser780) mAb-Eu Cryptate in Detection buffer (Cisbio Bioassays). Plates were incubated at room temperature for 60 minutes, and the TR-FRET signals (ex337 nm, em665 nm/620 nm) were recorded on a PHERAstar FSX plate reader (BMG Labtech). The inhibition percentage of CDK2/Cyclin E1 or CDK1/Cyclin B1 kinase activity in presence of increasing concentrations of compounds was calculated based on the ratio of fluorescence at 665 nm to that at 620 nm. The IC50 for each compound was derived from fitting the data to the four-parameter logistic equation by Dotmatics.

A further assay has as its target CDK1/Cyclin B1 (Homo sapiens, UniProt P06493). Nature of the assay: CDK1/Cyclin B1 Biochemical Assay (TR-FRET), 0.015 mM ATP. The following applies: 0.15 μM Rb (Ser780)-biotin substrate, pH7.0, 60 min preincubation, 120 min reaction, room temperature. How it is done:
as §1, §2
(In general: In TR-FRET formats the signal depends on donor and acceptor labels being close together.)

Chain of CDK1/Cyclin B1 (P06493 whole entry): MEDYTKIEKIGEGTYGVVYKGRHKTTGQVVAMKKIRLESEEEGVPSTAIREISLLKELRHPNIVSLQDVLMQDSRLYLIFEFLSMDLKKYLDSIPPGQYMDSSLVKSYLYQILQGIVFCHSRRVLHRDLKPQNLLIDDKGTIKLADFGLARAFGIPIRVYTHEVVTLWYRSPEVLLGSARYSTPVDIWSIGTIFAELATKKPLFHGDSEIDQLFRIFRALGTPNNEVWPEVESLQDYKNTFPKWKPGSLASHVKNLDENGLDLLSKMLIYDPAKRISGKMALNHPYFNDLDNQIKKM
Chain of CDK1/Cyclin B1 (P14635 whole entry partner): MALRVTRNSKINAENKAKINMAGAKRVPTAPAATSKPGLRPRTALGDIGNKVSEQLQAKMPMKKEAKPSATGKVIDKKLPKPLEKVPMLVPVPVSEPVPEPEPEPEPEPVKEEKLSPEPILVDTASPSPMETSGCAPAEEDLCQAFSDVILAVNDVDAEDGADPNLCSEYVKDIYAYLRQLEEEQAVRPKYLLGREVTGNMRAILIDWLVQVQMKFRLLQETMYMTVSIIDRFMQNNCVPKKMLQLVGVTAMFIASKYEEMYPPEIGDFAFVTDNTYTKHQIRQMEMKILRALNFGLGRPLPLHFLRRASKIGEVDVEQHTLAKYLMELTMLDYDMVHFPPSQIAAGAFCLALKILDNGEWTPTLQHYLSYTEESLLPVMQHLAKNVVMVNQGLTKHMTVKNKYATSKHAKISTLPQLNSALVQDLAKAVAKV

Broadly, the IC50 is the concentration that gives 50% inhibition. The low end stands for greater potency, the high end for weaker potency. For `CC(C)NC(=O)O[C@H]1CC[C@@H](c2cc(Nc3cc(F)c4c(c3)CS(=O)(=O)N4C3CC3)n[nH]2)C1` (relative stereo) [Example 288, cis-3-(3-((1-cyclopropyl-7-fluoro-2,2-dioxido-1,3-dihydrobenzo[c]isothiazol-5-yl)amino)-1H-pyrazol-5-yl)cyclopentyl isopropylcarbamate], the IC50 worked out at 5.5 nM against CDK2/Cyclin E1 and 152 nM on CDK1/Cyclin B1.

Regarding `CC(C)NC(=O)O[C@H]1CC[C@@H](c2cc(Nc3ccc4c(c3)C(C)NS4(=O)=O)n[nH]2)C1` (single isomer, unassigned) [Example 321a, cis-3-(3-((3-methyl-1,1-dioxido-2,3-dihydrobenzo[d]isothiazol-5-yl)amino)-1H-pyrazol-5-yl)cyclopentyl isopropylcarbamate], the values for the half-maximal inhibitory concentration (IC50) on CDK2/Cyclin E1 and at CDK1/Cyclin B1 were 2.9 nM and 95 nM, respectively.

With `CC1(NC(=O)O[C@H]2CC[C@@H](c3cc(Nc4ccc5c(c4F)CS(=O)(=O)N5C4CC4)n[nH]3)C2)CC1` (relative stereo) [Example 277, cis-3-(3-((1-cyclopropyl-4-fluoro-2,2-dioxido-1,3-dihydrobenzo[c]isothiazol-5-yl)amino)-1H-pyrazol-5-yl)cyclopentyl(1-methylcyclopropyl)carbamate], the results for the IC50 at CDK2/Cyclin E1 and on CDK1/Cyclin B1 were 1.7 nM and 36 nM, respectively.

Regarding `CC(C)NC(=O)O[C@H]1CC[C@@H](c2cc(Nc3ccc4c(c3F)CN(CCO)S4(=O)=O)n[nH]2)C1` (single isomer, unassigned) [Example 125a, cis-3-(3-((4-fluoro-2-(2-hydroxyethyl)-1,1-dioxido-2,3-dihydrobenzo[d]isothiazol-5-yl)amino)-1H-pyrazol-5-yl)cyclopentyl isopropylcarbamate], the IC50 was 12 nM at CDK2/Cyclin E1 and 1220 nM on CDK1/Cyclin B1.

In the case of `CCCNC(=O)O[C@H]1CC[C@@H](c2cc(Nc3ccc4c(c3F)C(C)NS4(=O)=O)n[nH]2)C1` (single isomer, unassigned) [Example 53d, cis-3-(3-((4-fluoro-3-methyl-1,1-dioxido-2,3-dihydrobenzo[d]isothiazol-5-yl)amino)-1H-pyrazol-5-yl)cyclopentyl propylcarbamate], the half-maximal inhibitory concentration (IC50) at CDK2/Cyclin E1 worked out at 7.1 nM; at CDK1/Cyclin B1, 170 nM.

Regarding `[2H]C([2H])([2H])N1Cc2c(ccc(Nc3cc([C@@H]4CC[C@H](OC(=O)NC5(C)CC5)C4)[nH]n3)c2F)S1(=O)=O` (single isomer, unassigned) [Example 132a, cis-3-(3-((4-fluoro-2-(methyl-d3)-1,1-dioxido-2,3-dihydrobenzo[d]isothiazol-5-yl)amino)-1H-pyrazol-5-yl)cyclopentyl(1-methylcyclopropyl)carbamate], the half-maximal inhibitory concentration (IC50) against CDK2/Cyclin E1 was determined as 2.2 nM; at CDK1/Cyclin B1, 206 nM.

As to `CC(C)NC(=O)O[C@H]1CC[C@@H](c2cc(Nc3ccc4c(c3)CS(=O)(=O)N4C(C)C3COC3)n[nH]2)C1` (relative stereo) [Example 208, cis-3-(3-((1-(1-(oxetan-3-yl)ethyl)-2,2-dioxido-1,3-dihydrobenzo[c]isothiazol-5-yl)amino)-1H-pyrazol-5-yl)cyclopentyl isopropylcarbamate], the concentration for half-maximal inhibition (IC50) at CDK2/Cyclin E1 turned out to be 16 nM; on CDK1/Cyclin B1, 262 nM.

Regarding `CC(=O)N1CCC(N2Cc3c(ccc(Nc4cc([C@@H]5CC[C@H](OC(=O)NC(C)C)C5)[nH]n4)c3F)S2(=O)=O)CC1` (relative stereo) [Example 78, cis-3-(3-((2-(1-acetylpiperidin-4-yl)-4-fluoro-1,1-dioxido-2,3-dihydrobenzo[d]isothiazol-5-yl)amino)-1H-pyrazol-5-yl)cyclopentyl isopropylcarbamate], the 50% inhibitory concentration (IC50) against CDK2/Cyclin E1 came out at 8.9 nM; against CDK1/Cyclin B1, 556 nM.

For `[2H]C([2H])([2H])N1Cc2c(ccc(Nc3cc([C@H]4CC[C@@H](OC(=O)NC5(C)CC5)C4)[nH]n3)c2F)S1(=O)=O` (racemic) [Example 132, cis-3-(3-((4-fluoro-2-(methyl-d3)-1,1-dioxido-2,3-dihydrobenzo[d]isothiazol-5-yl)amino)-1H-pyrazol-5-yl)cyclopentyl(1-methylcyclopropyl)carbamate], the half-maximal inhibitory concentration (IC50) on CDK2/Cyclin E1 was 1.6 nM; against CDK1/Cyclin B1, 104 nM.

For `CC(C)NC(=O)O[C@H]1CC[C@@H](c2cc(Nc3ccc4c(c3F)CS(=O)(=O)N4CC(F)(F)F)n[nH]2)C1` (single isomer, unassigned) [Example 263a, cis-3-(3-((4-fluoro-2,2-dioxido-1-(2,2,2-trifluoroethyl)-1,3-dihydrobenzo[c]isothiazol-5-yl)amino)-1H-pyrazol-5-yl)cyclopentyl isopropylcarbamate], the IC50 against CDK2/Cyclin E1 worked out at 2.1 nM; against CDK1/Cyclin B1 it was 70 nM.

As to `[2H]C([2H])([2H])N1c2ccc(Nc3cc([C@@H]4CC[C@H](OC(=O)NC(C)C)C4)[nH]n3)c(F)c2CS1(=O)=O` (single isomer, unassigned) [Example 267b, cis-3-(3-((4-fluoro-1-(methyl-d3)-2,2-dioxido-1,3-dihydrobenzo[c]isothiazol-5-yl)amino)-1H-pyrazol-5-yl)cyclopentyl isopropylcarbamate], the IC50 was 6.4 nM at CDK2/Cyclin E1 and 73 nM at CDK1/Cyclin B1.

`O=C(NC1COC1)O[C@H]1CC[C@@H](c2cc(Nc3ccc4c(c3F)CNS4(=O)=O)n[nH]2)C1` (relative stereo) [Example 149, cis-3-(3-((4-fluoro-1,1-dioxido-2,3-dihydrobenzo[d]isothiazol-5-yl)amino)-1H-pyrazol-5-yl)cyclopentyl oxetan-3-ylcarbamate]: the IC50 worked out at 42 nM against CDK2/Cyclin E1 and 666 nM at CDK1/Cyclin B1.

Regarding `CC[C@H](C)NC(=O)O[C@H]1CC[C@@H](c2cc(Nc3ccc4c(c3)CS(=O)(=O)N4)n[nH]2)C1` (single isomer, unassigned) [Example 323a], the results for the concentration for half-maximal inhibition (IC50) at CDK2/Cyclin E1 and on CDK1/Cyclin B1 were 6.7 nM and 30 nM, respectively.

Regarding `O=C(O[C@H]1CC[C@@H](c2cc(Nc3ccc4c(c3F)CNS4(=O)=O)n[nH]2)C1)N1CCOCC1` (relative stereo) [Example 373, cis-3-(3-((4-fluoro-1,1-dioxido-2,3-dihydrobenzo[d]isothiazol-5-yl)amino)-1H-pyrazol-5-yl)cyclopentyl morpholine-4-carboxylate], the half-maximal inhibitory concentration (IC50) against CDK2/Cyclin E1 is 45 nM; against CDK1/Cyclin B1 it was 1380 nM.

With `CC(C)NC(=O)O[C@H]1CC[C@@H](c2cc(Nc3cc4c(cc3OC(F)(F)F)S(=O)(=O)NC4)n[nH]2)C1` (relative stereo) [Example 28, cis-3-(3-((1,1-dioxido-6-(trifluoromethoxy)-2,3-dihydrobenzo[d]isothiazol-5-yl)amino)-1H-pyrazol-5-yl)cyclopentyl isopropylcarbamate], the 50% inhibitory concentration (IC50) was 1260 nM against CDK2/Cyclin E1 and more than 10000 nM on CDK1/Cyclin B1.

Take `CC(C)NC(=O)O[C@H]1CC[C@@H](c2cc(Nc3ccc4c(c3)C(C)S(=O)(=O)N4)n[nH]2)C1` (single isomer, unassigned) [Example 384a, cis-3-(3-((3-methyl-2,2-dioxido-1,3-dihydrobenzo[c]isothiazol-5-yl)amino)-1H-pyrazol-5-yl)cyclopentyl isopropylcarbamate]: the 50% inhibitory concentration (IC50) against CDK2/Cyclin E1 came to 0.8 nM; against CDK1/Cyclin B1, 22 nM.

For the molecule `CC(C)NC(=O)O[C@H]1CC[C@@H](c2cc(Nc3c(F)cc4c(c3O)CNS4(=O)=O)n[nH]2)C1` (relative stereo) [Example 406, cis-3-(3-((6-fluoro-4-hydroxy-1,1-dioxido-2,3-dihydrobenzo[d]isothiazol-5-yl)amino)-1H-pyrazol-5-yl)cyclopentyl isopropylcarbamate], the 50% inhibitory concentration (IC50) was 601 nM against CDK2/Cyclin E1 and more than 10000 nM against CDK1/Cyclin B1.

As for `CN1c2ccc(Nc3cc([C@@H]4CC[C@H](OC(=O)N[C@H]5CC[C@@H](O)CC5)C4)[nH]n3)c(F)c2CS1(=O)=O` (relative stereo) [Example 347, cis-3-(3-((4-fluoro-1-methyl-2,2-dioxido-1,3-dihydrobenzo[c]isothiazol-5-yl)amino)-1H-pyrazol-5-yl)cyclopentyl((1s,4s)-4-hydroxycyclohexyl)carbamate], the half-inhibitory concentration (IC50) against CDK2/Cyclin E1 worked out at 9.3 nM; against CDK1/Cyclin B1 it was 411 nM.

In the case of `CC(C)NC(=O)O[C@H]1CC[C@@H](c2cc(Nc3ccc4c(c3)CS(=O)(=O)N4C(C)C)n[nH]2)C1` (relative stereo) [Example 202, cis-3-(3-((1-isopropyl-2,2-dioxido-1,3-dihydrobenzo[c]isothiazol-5-yl)amino)-1H-pyrazol-5-yl)cyclopentyl isopropylcarbamate], the concentration for half-maximal inhibition (IC50) turned out to be 6.2 nM on CDK2/Cyclin E1 and 98 nM at CDK1/Cyclin B1.

`CC(C)NC(=O)O[C@H]1CC[C@@H](c2cc(Nc3cc4c(cc3F)CNS4(=O)=O)n[nH]2)C1` (single isomer, unassigned) [Example 1b, cis-3-(3-((5-fluoro-1,1-dioxido-2,3-dihydrobenzo[d]isothiazol-6-yl)amino)-1H-pyrazol-5-yl)cyclopentyl isopropylcarbamate]: the values for the IC50 at CDK2/Cyclin E1 and against CDK1/Cyclin B1 were 18 nM and 259 nM, respectively.

For the origin of these results see patent US20260297080A1, “BICYCLIC COMPOUNDS AS CDK INHIBITORS” (BeOne Medicines I GmbH, priority 2022, published 2026).
